Measurements published in PubChem BioAssay (NCI).
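Five compound concentrations were applied to cells in 96-well plates for 48 hours; endpoints were derived by simple linear interpolation of the resulting dose-response curve. The concentration for 50% growth inhibition is given as GI50. The concentration for full growth arrest is given as TGI.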

Key:
Assay in all cases: NCI anticancer screen, dose series, 48 h
786-0 renal = system: 786-0 renal
HCT-15 colon = system: HCT-15 colon
NCI/ADR-RES ovarian = system: NCI/ADR-RES ovarian
SF-539 CNS = system: SF-539 CNS
SK-MEL-5 melanoma = system: SK-MEL-5 melanoma
SN12C renal = system: SN12C renal
SNB-75 CNS = system: SNB-75 CNS
SR leukemia = system: SR leukemia
UACC-62 melanoma = system: UACC-62 melanoma
HCT-116 colon = system: HCT-116 colon

Row | SMILES | TGI (786-0 renal) | TGI (HCT-15 colon) | TGI (NCI/ADR-RES ovarian) | TGI (SF-539 CNS) | TGI (SK-MEL-5 melanoma) | TGI (SN12C renal) | TGI (SNB-75 CNS) | TGI (SR leukemia) | TGI (UACC-62 melanoma) | TGI (HCT-116 colon) | GI50 (786-0 renal) | GI50 (HCT-116 colon) | GI50 (HCT-15 colon) | GI50 (NCI/ADR-RES ovarian) | GI50 (SF-539 CNS) | GI50 (SK-MEL-5 melanoma) | GI50 (SN12C renal) | GI50 (SNB-75 CNS) | GI50 (UACC-62 melanoma) | GI50 (SR leukemia)
1 | O=[N+]([O-])c1ccc(C(c2c[nH]c3ccccc23)c2c[nH]c3ccccc23)cc1 | 35.2 µM | 29.7 µM | 27.5 µM | 30.6 µM | 20.2 µM | 35.2 µM | 18.5 µM | 22.5 µM | 26.5 µM | – | – | – | – | – | – | – | – | – | – | –
2 | CC[C@H](C)N(CCN)C(=O)c1cc2ccccc2c(-c2ccccc2Cl)n1 | > 100 µM | 16.1 µM | – | 6.5 µM | – | 32.8 µM | – | 28.1 µM | 29.5 µM | 14.9 µM | – | – | – | – | – | – | – | – | – | –
3 | O=C(CNc1nncs1)NO | > 100 µM | > 100 µM | – | > 100 µM | – | > 100 µM | > 100 µM | – | > 100 µM | > 100 µM | – | – | – | – | – | – | – | – | – | –
4 | ClCc1cccc(Cn2cnc3c(Cl)ncnc32)c1 | 19.7 µM | 4.64 µM | 7.62 µM | 35.3 µM | 6.38 µM | 5.13 µM | 4.56 µM | – | 3.4 µM | 3.07 µM | 6.17 µM | 1.48 µM | 2.17 µM | 2.43 µM | 20.1 µM | 2.3 µM | 2.32 µM | 2.09 µM | 1.82 µM | –
5 | CC1=C(C)C(=O)c2c(cc3ccc4ccccc4n23)C1=O | > 100 µM | > 100 µM | – | > 100 µM | > 100 µM | > 100 µM | > 100 µM | > 100 µM | > 100 µM | – | – | – | – | – | – | – | – | – | – | –
6 | COc1cc(-c2nn(-c3ccc(NC(=O)c4ccc(Cl)c(Cl)c4)cc3)cc2-c2ccncc2)ccc1Cl | 4.59 µM | > 100 µM | > 100 µM | > 100 µM | – | > 100 µM | > 100 µM | > 100 µM | > 100 µM | > 100 µM | 2.05 µM | 4.6 µM | 2.68 µM | 7.16 µM | 2.85 µM | – | 5.11 µM | 7.52 µM | 6.34 µM | 18.7 µM
7 | COc1cc2c3c(n(C)c(=O)c2cc1OC)-c1cc2c(cc1/C3=C\CCCCCN)OCO2 | > 50.9 µM | 12.7 µM | > 48.8 µM | 14.8 µM | 38.2 µM | 18.4 µM | > 100 µM | – | 25.3 µM | – | 0.979 µM | – | 1.58 µM | 2.6 µM | 1.96 µM | 3.12 µM | 0.271 µM | 19.5 µM | 2.56 µM | < 0.01 µM
8 | Cc1ccc(-[n+]2c3cc(N)c(C)cc3nc3cc(C)c(Nc4ccccc4)cc32)cc1 | 0.644 µM | – | – | – | 0.289 µM | – | 0.419 µM | – | 0.979 µM | – | 0.2 µM | – | – | – | – | 0.147 µM | – | 0.154 µM | 0.236 µM | –
9 | O=C(Oc1ccc(Cl)cc1Cl)c1ccccc1Nc1ccnc(C(F)(F)F)c1 | 5.87 µM | 5.31 µM | 11.7 µM | 12 µM | 10.5 µM | 7.63 µM | – | > 100 µM | 7.06 µM | – | 1.93 µM | – | 2.26 µM | 3.66 µM | 3.77 µM | 2.85 µM | 3.01 µM | – | 2.29 µM | 0.772 µM
10 | CC(=O)O/C=C(/C=C/OC(C)=O)C(C/C=C(\C)C#CC=C(C)C)OC(C)=O (stereo unspecified) | > 100 µM | 50.3 µM | – | 54.6 µM | > 100 µM | > 100 µM | – | – | 77.7 µM | 39 µM | – | – | – | – | – | – | – | – | – | –
11 | CCOc1ccccc1NC(=O)C(=O)CC(=O)c1c(C)n([O-])c2ccccc2[n+]1=O | > 100 µM | > 100 µM | – | > 100 µM | > 100 µM | > 100 µM | > 100 µM | – | > 100 µM | > 100 µM | – | – | – | – | – | – | – | – | – | –
12 | CC(=O)n1c(COS(C)(=O)=O)nc2ccccc21 | > 100 µM | > 100 µM | > 100 µM | > 100 µM | > 100 µM | > 100 µM | > 100 µM | – | > 100 µM | > 100 µM | – | – | – | – | – | – | – | – | – | –
13 | COc1ccc2c(c1)[nH]c(=O)c1c3cc(C)c(C)cc3cn21 | 1.6 µM | 0.363 µM | – | 0.0578 µM | 0.0763 µM | 1.74 µM | 4.37 µM | 0.224 µM | 5.32 µM | 0.516 µM | < 0.0233 µM | < 0.01 µM | < 0.0142 µM | – | 0.0186 µM | < 0.0158 µM | < 0.0192 µM | < 0.01 µM | < 0.0204 µM | < 0.0152 µM
14 | Cc1ccc(OCC(=O)N2N=C(c3ccccc3)CC2(O)c2ccccc2)cc1 (stereo unspecified) | 30 µM | > 100 µM | – | > 100 µM | – | 40.3 µM | > 100 µM | > 100 µM | > 100 µM | > 100 µM | – | – | – | – | – | – | – | – | – | –
15 | CCC[CH2][Sn-]([CH2]CCC)([CH2]CCC)[O]c1cc(Cl)c(Cl)cc1Cl | 0.318 µM | 0.33 µM | 0.385 µM | 0.437 µM | 0.335 µM | 0.338 µM | 1.14 µM | – | 0.394 µM | 0.318 µM | 0.163 µM | 0.154 µM | 0.165 µM | 0.163 µM | 0.267 µM | 0.168 µM | 0.164 µM | 0.231 µM | 0.152 µM | –
16 | CNC(P(=O)([O-])[O-])P(=O)([O-])[O-].N.N.[Pt+2] | > 100 µM | > 100 µM | – | > 100 µM | – | > 100 µM | > 100 µM | – | > 100 µM | > 100 µM | > 100 µM | > 100 µM | > 100 µM | – | > 100 µM | – | > 100 µM | > 100 µM | > 100 µM | –
17 | COc1ccc2cc(C(=O)/C=C/c3cc(OC)c(OC)c(OC)c3)ccc2c1 | 15.7 µM | > 50 µM | – | – | 1.01 µM | 8.78 µM | 39.3 µM | > 50 µM | 12.7 µM | 8.27 µM | 7.61 µM | 1.62 µM | 1.77 µM | – | – | 0.0737 µM | 1.73 µM | 11.8 µM | 5.25 µM | 1.32 µM
